Measured values: ChEMBL document CHEMBL1158856, “Bioactive constituents of Morus australis and Broussonetia papyrifera” (J Nat Prod, 1997)

What was measured:
[1] = Antiplatelet activity against rabbit platelet assessed as inhibition of arachidonic acid-induced platelet aggregation at 50 uM preincubated 3 mins before arachidonic acid challenge by turbidimetric method relative to control; type: functional, Oryctolagus cuniculus; parameters: scale not given: the % may be the effect or the level left
[2] = Antiplatelet activity against rabbit platelet assessed as inhibition of platelet-activating factor-induced platelet aggregation at 50 uM preincubated 3 mins before PAF challenge by turbidimetric method relative to control; type: functional, Oryctolagus cuniculus; parameters: scale not given: the % may be the effect or the level left
[3] = Antiplatelet activity against rabbit platelet assessed as inhibition of thrombin-induced platelet aggregation at 50 uM preincubated 3 mins before thrombin challenge by turbidimetric method relative to control; type: functional, Oryctolagus cuniculus; parameters: scale not given: the % may be the effect or the level left
[4] = Antiplatelet activity against rabbit platelet assessed as inhibition of collagen-induced platelet aggregation at 50 uM preincubated 3 mins before collagen challenge by turbidimetric method relative to control; type: functional, Oryctolagus cuniculus; parameters: scale not given: the % may be the effect or the level left
[5] = Antiplatelet activity against rabbit platelet assessed as inhibition of platelet-activating factor-induced platelet aggregation at 20 uM preincubated 3 mins before PAF challenge by turbidimetric method relative to control; type: functional, cell-based, Oryctolagus cuniculus; parameters: Activity: scale not given: the % may be the effect or the level left; conditions: for IC50: Oryctolagus cuniculus, Platelet
[6] = tested on: Brain; test: Antioxidant activity in Wistar rat brain homogenate assessed as inhibition of Fe2+-induced TBARS formation by lipid peroxidation assay; type: functional, tissue-based
[7] = Antiproliferative activity against PDGF-stimulated rat VSMC assessed as inhibition of [3H]thymidine incorporation into DNA after 20 hrs by liquid scintillation counting relative to control; type: functional
[8] = (§1) Antiproliferative activity against FCS-stimulated rat VSMC assessed as inhibition of [3H]thymidine incorporation into DNA after 20 hrs by liquid scintillation counting relative to control; type: functional
[9] = tested on: VSMC; test: as §1; type: functional
[10] = (§2) Antiproliferative activity against ADP-stimulated rat VSMC assessed as inhibition of [3H]thymidine incorporation into DNA after 20 hrs by liquid scintillation counting relative to control; type: functional
[11] = tested on: VSMC; test: as §2; type: functional
[12] = (§3) Antiproliferative activity against 5-HT-stimulated rat VSMC assessed as inhibition of [3H]thymidine incorporation into DNA after 20 hrs by liquid scintillation counting relative to control; type: functional
[13] = tested on: VSMC; test: as §3; type: functional
[14] = Antiplatelet activity against rabbit platelet assessed as inhibition of arachidonic acid-induced platelet aggregation at 100 uM preincubated 3 mins before arachidonic acid challenge by turbidimetric method relative to control; type: functional, Oryctolagus cuniculus; parameters: scale not given: the % may be the effect or the level left
[15] = Antiplatelet activity against rabbit platelet assessed as inhibition of platelet-activating factor-induced platelet aggregation at 100 uM preincubated 3 mins before PAF challenge by turbidimetric method relative to control; type: functional, Oryctolagus cuniculus; parameters: scale not given: the % may be the effect or the level left
[16] = Antiplatelet activity against rabbit platelet assessed as inhibition of arachidonic acid-induced platelet aggregation at 20 uM preincubated 3 mins before arachidonic acid challenge by turbidimetric method relative to control; type: functional, Oryctolagus cuniculus; parameters: scale not given: the % may be the effect or the level left
[17] = Antiplatelet activity against rabbit platelet assessed as inhibition of thrombin-induced platelet aggregation at 300 uM preincubated 3 mins before thrombin challenge by turbidimetric method relative to control; type: functional, Oryctolagus cuniculus; parameters: scale not given: the % may be the effect or the level left
[18] = Antiplatelet activity against rabbit platelet assessed as inhibition of arachidonic acid-induced platelet aggregation at 300 uM preincubated 3 mins before arachidonic acid challenge by turbidimetric method relative to control; type: functional, Oryctolagus cuniculus; parameters: scale not given: the % may be the effect or the level left
[19] = Antiplatelet activity against rabbit platelet assessed as inhibition of collagen-induced platelet aggregation at 300 uM preincubated 3 mins before collagen challenge by turbidimetric method relative to control; type: functional, Oryctolagus cuniculus; parameters: scale not given: the % may be the effect or the level left
[20] = Antiplatelet activity against rabbit platelet assessed as inhibition of platelet-activating factor-induced platelet aggregation at 300 uM preincubated 3 mins before PAF challenge by turbidimetric method relative to control; type: functional, Oryctolagus cuniculus; parameters: scale not given: the % may be the effect or the level left
[21] = tested on: Brain; test: Antioxidant activity in Wistar rat brain homogenate assessed as inhibition of Fe2+-induced TBARS formation at 100 uM by lipid peroxidation assay; type: functional, tissue-based
[22] = Antiplatelet activity against rabbit platelet assessed as inhibition of thrombin-induced platelet aggregation at 100 uM preincubated 3 mins before thrombin challenge by turbidimetric method; type: functional, Oryctolagus cuniculus; parameters: scale not given: the % may be the effect or the level left
[23] = Antiplatelet activity against rabbit platelet assessed as inhibition of collagen-induced platelet aggregation at 100 uM preincubated 3 mins before collagen challenge by turbidimetric method relative to control; type: functional, Oryctolagus cuniculus; parameters: scale not given: the % may be the effect or the level left

Structure (SMILES)	Activity [1]	Activity [2]	IC50 [5]	Activity [6]	inhibition (INH) [7]	inhibition (INH) [8]	inhibition (INH) [10]	inhibition (INH) [12]	other results
CC(=O)Oc1ccccc1C(=O)O [ASPIRIN]	0%	90.5%							Activity [3]: 91.9%; Activity [4]: 85.4%
CC(C)=CCc1cc(-c2oc3c(CC=C(C)C)c(O)cc(O)c3c(=O)c2O)ccc1O [BROUSSOFLAVONOL F]			2700 nM	Dose-dependent effect	127%	0%	7.8%	0%	Activity [9]: Dose-dependent effect; Activity [11]: Dose-dependent effect; Activity [13]: Dose-dependent effect
CC(C)=CCc1c(-c2ccc(O)cc2O)oc2c(CC=C(C)C)c(O)cc(O)c2c1=O [KUWANON C]	60.2%	67.6%							Activity [14]: 5.9%; Activity [15]: 26.9%; Activity [16]: 83.9%; Activity [5]: 78.8%; Activity [17]: 54.8%; Activity [18]: 0%; Activity [19]: 5.5%; Activity [20]: 0%
CC(C)=CCc1c(-c2oc3c(CC=C(C)C)c(O)cc(O)c3c(=O)c2O)cc(O)c(O)c1CC=C(C)C [BROUSSOFLAVONOL E]			1000 nM	Dose-dependent effect	127%	0%	0.4%	0%	Activity [9]: Dose-dependent effect; Activity [11]: Dose-dependent effect; Activity [13]: Dose-dependent effect
CC(C)=CCc1c([C@@H]2CCc3ccc(O)cc3O2)cc2c(c1O)OC(C)(C)C(O)C2O (stereo not given in full) [BROUSSOFLAVAN A]			2100 nM	Dose-dependent effect	258%	39.5%	67%	19%	
CC(C)=CCc1cc2c(cc1O)O/C(=C\c1ccc(O)c(O)c1)C2=O [BROUSSOAURONE A]			1200 nM	Dose-dependent effect					
Cc1cc(C(C)(C)C)c(O)c(C(C)(C)C)c1 [BUTYLATED HYDROXYTOLUENE]			14500 nM						inhibition [21]: 91.3%
CC(C)=CCc1c(-c2ccc(O)cc2O)oc2c3c(cc(O)c2c1=O)OC(C)(C)C=C3 [MORUSIN]	74.2%	62.5%							Activity [22]: 81.8%; Activity [14]: 0%; Activity [23]: 5.3%; Activity [15]: 0%; Activity [16]: 82.8%; Activity [5]: 81.3%
